According to ChEMBL document CHEMBL2163271, “Antitumor agents 295. E-ring hydroxylated antofine and cryptopleurine analogues as antiproliferative agents: design, synthesis, and mechanistic studies” (J Med Chem, 2012):

Tests used:
Assay type in all cases: functional, cell-based
A549 = test: Cytotoxicity against human A549 cells after 2 hrs by methylene blue staining-based spectrophotometric analysis; details: A549, 2 h
DU-145 = test: Cytotoxicity against human DU145 cells after 2 hrs by methylene blue staining-based spectrophotometric analysis; details: DU-145, 2 h
[1] = Cytotoxicity against human KBVIN cells overexpressing P-gp after 2 hrs by methylene blue staining-based spectrophotometric analysis
KB = test: Cytotoxicity against human KB cells after 2 hrs by methylene blue staining-based spectrophotometric analysis

| Compound | IC50 (A549) | IC50 (DU-145) | IC50 [1] | IC50 (KB) |
| --- | --- | --- | --- | --- |
| COc1ccc2c3c(c4cc(OC)c(OC)cc4c2c1)C[C@H]1CC(=O)CN1C3 | 290 nM | 710 nM | 430 nM | 500 nM |
| COc1ccc2c3c(c4cc(OC)c(OC)cc4c2c1)C[C@H]1C[C@@H](OC)CCN1C3 | 7110 nM | 3570 nM | 3690 nM | 5240 nM |
| COc1ccc2c3c(c4cc(OC)c(OC)cc4c2c1)C[C@H]1CC(=O)CCN1C3 | 28 nM | 45 nM | 43 nM | 50 nM |
| COc1ccc2c3c(c4cc(OC)c(OC)cc4c2c1)C[C@H]1C[C@H](O)[C@@H](O)CN1C3 | 550 nM | 600 nM | 2170 nM | 840 nM |
| COC1=C[C@@H]2Cc3c(c4ccc(OC)cc4c4cc(OC)c(OC)cc34)CN2C1 | 5970 nM | 10300 nM | 2640 nM | 12000 nM |
| COc1ccc2c3c(c4cc(OC)c(OC)cc4c2c1)C[C@H]1C[C@H](O)CN1C3 | 2270 nM | 1800 nM | 2210 nM | 1810 nM |
